Assay results from patent EP0513703A2, “Carbamate esters of eseroline having anticholinesterase activity, a process for their preparation and relative pharmaceutical compositions containing them as the active principle” (priority 1991, dated 1992).
Like-named read-outs stand apart in the source and are kept apart here.

Columns and labels:
mice (Swiss strain) = test: Acute toxicity, LD50 by oral route in mice (class E derivatives); type: in vivo; conditions: mouse, suspension in 2 % carboxymethylcellulose, observation 7 days
Text: (§1) The letal doses 50 (LD50) by oral route (suspension in 2 % carboxymethylcellulose) are reported herinbelow: TABLE 9

acetylcholinesterase = type: in vivo, Wistar male rats; conditions: rat
mouse [1] = test: Spontaneous motility, Dews method modified according to Carminati (class E derivatives); type: in vivo; conditions: mouse (Strain Swiss)
Text: (§2) The Dews method was used, modified according to Carminati (Arch. int. Pharmacodyn. et Thér 181, 68,1969).

SWISS male mice = test: Electroencephalographic activity (class E derivatives); type: in vivo; conditions: 0.4 mg/kg/os, in the course of the successive 30 minutes
[2] = Pharmacokinetics, plasma level by HPLC (MS001); type: in vivo, Wistar male rats; conditions: rat, 0.5 mg/kg/os
Protocol: The presence of MS001 in plasma was detected by HPLC.
With the optimized method the detection limit was of 0.20 µg per ml of plasma.

[3] = Acute toxicity, LD50 by oral route in mice (class A derivatives); type: in vivo; conditions: both sexes, Swiss, in vivo, mouse, suspension in 2 % carboxymethylcellulose, observation 7 days, read-out: LD50 per os
Text: The letal doses 50 (LD50) by oral route (suspension in 2 % carboxymethylcellulose) are reported herinbelow: TABLE 1

mouse [4] = test: Spontaneous motility, Dews method modified according to Carminati (class A derivatives); type: in vivo; conditions: mouse (Swiss), minimum doses
Text: as §2

SWISS mice [5] = test: Antagonism of the central stimulating (hypermotor) effect of scopolamine (class A derivatives); type: in vivo; conditions: given 30 minutes before scopolamine 1 mg/kg s.c.
Text: (§3) At this dose the substance provoked in all the animals a considerable increase (80-100%) of the spontaneous motility, studied according to the above mentioned method.

mice = test: Toxicity, LD50 by intraperitoneal route (class B derivatives); type: in vivo; conditions: death within 24 hours of 50% of the tested animals
Text: In the following table reported are LD50 values determined on mice for the listed compounds and compared with that of physostigmine administered by the same (intraperitoneal) route.

mouse [6] = test: Toxicity, LD50 by intraperitoneal route (class C derivatives); type: in vivo
Text: In the following table reported are the LD50 values determined on mouse for the compounds listed and compared with the corresponding LD50 value for physostigmine, administered by the same (intraperitoneal) route.

[7] = Acute toxicity, LD50 by oral route in mice (class D derivatives); type: in vivo; conditions: both sexes, Swiss, in vivo, mouse, suspension in 2 % carboxymethylcellulose, observation 7 days, read-out: LD50 per os
Text: The letal doses 50 (LD50) by oral route (suspension in 2 % carboxymethylcellulose) are reported hereinbelow: TABLE 6

mouse [8] = test: Spontaneous motility, Dews method modified according to Carminati (class D derivatives); type: in vivo; conditions: mouse (Swiss)
Text: as §2

SWISS mice [9] = test: Antagonism of the central stimulating (hypermotor) effect of scopolamine (class D derivatives); type: in vivo; conditions: given 30 minutes before scopolamine 1 mg/kg s.c.
Text: as §3

[10] = Acute toxicity, LD50 by oral route in mice (class E derivatives); type: in vivo; conditions: both sexes, Swiss, in vivo, mouse, suspension in 2 % carboxymethylcellulose, observation 7 days, read-out: LD50 per os
Text: as §1

SWISS mice [11] = test: Antagonism of the central stimulating (hypermotor) effect of scopolamine (class E derivatives); type: in vivo; conditions: given 30 minutes before scopolamine 1 mg/kg s.c.
Text: At this dose the substance provoked a considerable increase (80-100%) of the spontaneous motility, studied according to the above mentioned method.

[12] = Acute toxicity, LD50 by oral administration in mice (class F derivatives); conditions: both, Swiss, mouse, in vivo, po
[13] = acetylcholinesterase inhibition 20 minutes after oral administration, limits in brackets

Compound: CN1CC[C@@]2(C)c3cc(OC(=O)NCCCCCCCCNC(=O)Oc4ccc5c(c4)[C@]4(C)CCN(C)[C@@H]4N5C)ccc3N(C)[C@@H]12 [MS001, (3a S-cis) - 1,2,3,3a,8,8a hexahydro - 1,3a,8 - trimethyl pyrrol [2,3-b]-indol-5-ol-1,8-octandicarbamate ester]
- LD50 per os (mice (Swiss strain)): 51.40 ± 5.48 mg/kg
- INHIBITION % OF ACETYLCHOLINESTERASE (AchE) after 60 minutes brain (acetylcholinesterase; 0.2 mg/kg/OS): 43.41 ± 3.25%
- INHIBITION % OF ACETYLCHOLINESTERASE (AchE) after 60 minutes serum (acetylcholinesterase; 0.2 mg/kg/OS): 36.22 ± 6.20%
- INHIBITION % OF ACETYLCHOLINESTERASE (AchE) after 120 minutes brain (acetylcholinesterase; 0.2 mg/kg/OS): 19.6 ± 3.41%
- INHIBITION % OF ACETYLCHOLINESTERASE (AchE) after 120 minutes serum (acetylcholinesterase; 0.2 mg/kg/OS): 23.12 ± 5.28%
- ED50 (mg/kg/os) brain (acetylcholinesterase; [13]): 0.17 (0.12 - 0.23) mg/kg/os
- ED50 (mg/kg/os) serum (acetylcholinesterase; [13]): 0.18 (0.12 - 0.26) mg/kg/os
- oral dose causing a significant decrease of the spontaneous motility (mouse [1]): 0.25 mg/kg
- decrease of the spontaneous motility (on average) (mouse [1]; oral, 0.25 mg/kg): ~-25%
- modifications of the electroencephalogram (SWISS male mice): increase of the amplitude and a decrease of the frequency of the electroencephalogram
- concentration in plasma after 15 minutes [2]: 10640 ± 6260 ng/mL
- concentration in plasma after 120 minutes [2]: 32120 ± 6410 ng/mL
- concentration in plasma after twelve hours [2]: 11310 ± 3180 ng/mL
- maximum peak in plasma [2]: 41.24 ± 8.36 µg/mL
- time of the maximum peak in plasma [2]: 90 '

Compound: CNC(=O)Oc1ccc2c(c1)[C@]1(C)CCN(C)[C@@H]1N2C [Physostigmine, physostigmine, reference compound]
- LD50 at 7 days [3]: 4.37 ± 1.22 mg/kg
- oral dose causing a significant decrease of the spontaneous motility (mouse [4]): 0.6 mg/kg
- dose completely undoing the hypermotor effect of scopolamine (SWISS mice [5]): 0.4 mg/kg/os
- LD50 (mg/kg i.p.) (mice): 0.6 mg/kg i.p.
- LD50 (mg/kg i.p) (mouse [6]): 0.6 mg/kg i.p
- LD50 at 7 days [7]: 4.12 ± 0.89 mg/kg
- oral dose causing a significant decrease of the spontaneous motility (mouse [8]): 0.6 mg/kg
- dose completely undoing the hypermotor effect of scopolamine (SWISS mice [9]): 0.4 mg/kg/os
- LD50 at 7 days [10]: 3.78 ± 0.86 mg/kg
- INHIBITION % OF ACETYLCHOLINESTERASE (AchE) after 60 minutes brain (acetylcholinesterase; in vivo, 0.4 mg/kg): 22.3 ± 5.12%
- INHIBITION % OF ACETYLCHOLINESTERASE (AchE) after 60 minutes serum (acetylcholinesterase; in vivo, 0.4 mg/kg): 18.41 ± 4.16%
- INHIBITION % OF ACETYLCHOLINESTERASE (AchE) after 120 minutes brain (acetylcholinesterase; in vivo, 0.4 mg/kg): 2.41 ± 1.33%
- INHIBITION % OF ACETYLCHOLINESTERASE (AchE) after 120 minutes serum (acetylcholinesterase; in vivo, 0.4 mg/kg): 3.44 ± 1.21%
- ED50 (mg/kg/os) brain (acetylcholinesterase; in vivo, po): 0.38 (0.24 - 0.60) mg/kg/os
- ED50 (mg/kg/os) serum (acetylcholinesterase; in vivo, po): 0.37 (0.23 - 0.59) mg/kg/os
- oral dose causing a significant decrease of the spontaneous motility (mouse [1]): 0.6 mg/kg
- dose completely undoing the hypermotor effect of scopolamine (SWISS mice [11]): 0.4 mg/kg/os
- LD50 [12]: 4.5 mg/kg
